Assay results: patent US6413974B1, “6,9,-disubstituted 2-[trans-(4-aminocyclohexyl) amino] purines” (Aventis Pharmaceuticals Inc., priority 1998, dated 2002)
“And” between values parts separate entries of the source, which are not always exact repeats. Equal entries are not always repeated. Structures can show the parent of a compound that is named as a salt. Where two headings read alike, the source gives them in different places.

How the values were obtained:
[1] = biological target: T1, cdk2/cyclin E (Homo sapiens, UniProt P24941); experiment: Cyclin-Dependent Kinase 2 Assay (cdk-2 inhibition); format: biochemical; conditions: GST-Rb substrate, 30 min at 30° C.
T1 construct: made in house; host or cells: insect cells (baculovirus co-infection)
Outline: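 GST-Rb bound to glutathione-Sepharose beads (0.5 μg/well) as substrate in 50 mM HEPES pH 7.5, 10 mM MgCl2, 1 mM EGTA. Recombinant cdk2/cyclin E at 0.1 μg per 100 μl, 30 min at 30 °C. Reaction stopped by filtration, TNEN washes, scintillation counting.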

[2] = tested on: HT-29; experiment: In vitro tumor cell proliferation, HT-29; format: cell-based, human; conditions: read-out: In vitro Tumor Cell Proliferation (IC50, μM) Colon HT-29 (converted)
Outline: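 HT-29 human colon adenocarcinoma cells plated overnight at 37° C., then exposed to drug for 3 days, medium with fresh drug replaced for a further 4 days. Cells fixed with 10% TCA and stained with 0.4% sulforhodamine B; alternatively, CyQUANT read after 3 days of drug exposure.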

[3] = tested on: DMS-114; experiment: In vitro tumor cell proliferation, DMS-114; format: cell-based, human; conditions: read-out: In vitro Tumor Cell Proliferation (IC50, μM) Lung DMS-114
Outline: (§1)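 Cells seeded overnight at 37° C, then exposed to drug 3 days, medium and drug renewed, plus 4 more days; TCA-fixed and sulforhodamine B stained. Alternatively CyQUANT read-out after 3 days' drug exposure, plates frozen at −80° C.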

[4] = tested on: HCT-15; experiment: In vitro tumor cell proliferation, HCT-15; format: cell-based, human; conditions: read-out: In vitro Tumor Cell Proliferation (IC50, μM) Colon HCT-15
Protocol: (§2) The proliferation of tumor cells was measured using a sulforhodamine B assay as described in Skehan, P., et al., J. Natl. Cancer Inst. […] Tumor cells were harvested with trypsin-EDTA, cells that excluded trypan blue were counted, added to 96-well plates and incubated overnight at 37° C. Drug was added to the wells following dilution in culture medium. Three days later, the medium was removed and replenished with medium containing fresh drug and incubated an additional 4 days. The cells were then fixed with 0.1 ml 10% trichloroacetic acid for 60 min at 4° C. The plates were rinsed five times with tap water, air-dried and stained for 30 min with 0.4% sulforhodamine B in 1% acetic acid and air-dried.
(§3) Alternatively, the CyQUANT cell proliferation assay was used to quantify tumor cell proliferation. Tumor cells were harvested with trypsin-EDTA, cells that excluded trypan blue were counted, added to 96-well plates and incubated overnight at 37° C. Drug was added to the wells following dilution in culture medium. Three days later the medium was removed and the plates frozen at −80° C. for at least 30 minutes.

[5] = tested on: DU 145; experiment: In vitro tumor cell proliferation, DU 145; format: cell-based, human; conditions: read-out: In vitro Tumor Cell Proliferation (IC50, μM) Prostate DUI45
Outline: as §1

[6] = tested on: MDA-MB-231; experiment: In vitro tumor cell proliferation, MDA-MB-231; format: cell-based, human; conditions: read-out: In vitro Tumor Cell Proliferation (IC50, μM) Breast MDA-MB-231
Outline: as §1

[7] = tested on: PC-3; experiment: In vitro tumor cell proliferation, PC-3; format: cell-based, human; conditions: read-out: In vitro Tumor Cell Proliferation (IC50, μM) Prostate PC-3
Outline: as §1

[8] = biological target: T2, cdk4/cyclin D1 (Homo sapiens, UniProt P11802); experiment: Cyclin-dependent kinase 4 Assay; format: biochemical; conditions: cdk4/cyclin D1, GST-Rb substrate, 10 μM ATP, 30 min at 37° C.; read-out: CDK4 Inhibition IC50
T2 construct: made in house; host or cells: Sf9 insect cells (Bac-to-Bac baculovirus, pFastBac)
T2 sequence (P11802 whole entry): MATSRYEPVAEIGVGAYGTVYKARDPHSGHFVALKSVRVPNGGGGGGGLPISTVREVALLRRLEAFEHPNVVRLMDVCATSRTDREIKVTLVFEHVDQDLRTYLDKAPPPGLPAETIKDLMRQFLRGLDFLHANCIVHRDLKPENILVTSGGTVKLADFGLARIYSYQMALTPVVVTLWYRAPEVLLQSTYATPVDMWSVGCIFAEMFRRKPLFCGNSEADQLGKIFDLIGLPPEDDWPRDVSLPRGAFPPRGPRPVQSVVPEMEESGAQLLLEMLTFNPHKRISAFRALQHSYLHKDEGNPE
T2 sequence (P24385 whole entry partner): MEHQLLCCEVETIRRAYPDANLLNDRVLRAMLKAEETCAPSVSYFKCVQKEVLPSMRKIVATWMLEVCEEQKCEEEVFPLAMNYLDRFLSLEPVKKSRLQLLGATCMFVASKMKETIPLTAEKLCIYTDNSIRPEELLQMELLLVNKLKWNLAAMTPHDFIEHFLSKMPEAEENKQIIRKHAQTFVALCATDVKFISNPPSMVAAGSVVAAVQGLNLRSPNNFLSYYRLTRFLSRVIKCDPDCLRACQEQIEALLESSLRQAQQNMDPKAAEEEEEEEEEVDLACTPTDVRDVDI
Outline: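 Insect-cell lysate of coexpressed human cdk4/cyclin D1 (0.1 μg) phosphorylated bead-bound GST-Rb (0.5 μg) in 50 mM HEPES pH 7.5, 10 mM MgCl2, 1 mM EGTA for 30 min at 37 °C. Filters were washed with TNEN and scintillation-counted; IC50 values derived.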

[9] = tested on: MCF-7; experiment: In vitro tumor cell proliferation, MCF-7; format: cell-based, human; conditions: read-out: In vitro Tumor Cell Proliferation (IC50, μM) Breast MCF-7
Protocol: as §2, §3
MCF7 is a human breast adenocarcinoma, hormone-dependent (HTB 22);

[10] = tested on: A549; experiment: In vitro tumor cell proliferation, A549; format: cell-based, human; conditions: read-out: In vitro Tumor Cell Proliferation (IC50, μM) Lung A549
Outline: as §1

[11] = Homo sapiens, HT-29, values without *
[12] = values without *, dihydrochloride
[13] = Homo sapiens, DMS-114, values without *
[14] = Homo sapiens, HCT-15, values without *
[15] = Homo sapiens, DU-145, values without *
[16] = Homo sapiens, MDA-MB-231, values without *
[17] = Homo sapiens, PC-3, values without *
[18] = Homo sapiens, MCF7, values without *
[19] = Homo sapiens, A549, values without *

Row | SMILES | IC50 [1] | IC50 [2, 11] [µM] | IC50 [2, 12] | IC50 [3, 13] [µM] | IC50 [3, 12] | IC50 [4, 14] [µM] | IC50 [5, 15] [µM] | IC50 [5, 12] | IC50 [6, 16] [µM] | IC50 [7, 17] [µM] | IC50 [7, 12] | IC50 [8] | IC50 [4, 12] | IC50 [9, 18] [µM] | IC50 [9, 12] [µM] | IC50 [10, 19] [µM] | IC50 [10, 12] | IC50 [6, 12]
1 | Cc1cccc(CNc2nc(N[C@H]3CC[C@H](N)CC3)nc3c2ncn3C2CCCC2)c1 [Example 11, 2-[Trans-(4-aminocyclohexyl)amino]-6-[(3-methylbenzyl)amino]-9-cyclopentylpurine dihydrochloride] | 0.15 µM | 8.2 | 11 µM | 4.5 | 7.1 µM | 11 | 4.8 | 8 µM | 7.4 | 5.8 | 4.2 µM | 11 µM and 7.4 µM | – | – | – | – | – | –
2 | C[C@@H](Nc1nc(NC2CCC(N)CC2)nc2c1ncn2C1CCCC1)c1ccccc1 (stereo partly drawn) [Example 16, (R)-2-[Trans-(4-aminocyclohexyl)amino]-6-[(α-methylbenzylamino]-9-cyclopentylpurinedihydrochloride] | 0.72 µM | 6.3 | 5.1 µM | 7.4 | 5.1 µM | 9.4 | 6.2 | 5 µM | 5.9 | 5 | 2.8 µM | 11 µM and 6.7 µM | 7.8 µM | 4.1 | 2.5 | 6.4 | 5.8 µM | 4.4 µM
3 | N[C@H]1CC[C@H](Nc2nc(NCc3cccc(Cl)c3)c3ncn(C4CCCC4)c3n2)CC1 [Example 29, 2-[Trans-(4-aminocyclohexyl)amino]-6-[(3-chlorobenzyl)amino]-9-cyclopentylpurine dihydrochloride] | 0.032 µM | 2.4 | 1.5 µM | 0.52 | 0.63 µM | 3.8 | 0.8 | 0.92 µM | 1.1 | – | – | 0.53 µM | 2.9 µM | – | – | 0.92 | 1.3 µM | 1.6 µM
4 | N[C@H]1CC[C@H](Nc2nc(NCc3ccccc3)c3ncn(C4CCCC4)c3n2)CC1 [Example 47, 2-[Trans-(4-aminocyclohexyl)amino]-6-[benzylamino]-9-cyclopentylpurine dihydrochloride] | – | 2.2 | 2.7 µM | – | 1.3 µM | 5.5 | – | – | – | 0.93 | 1.3 µM | – | 6.1 µM | 1 | 1.7 | 1.7 | – | –
5 | N[C@H]1CC[C@H](Nc2nc(NCc3ccc(Cl)cc3Cl)c3ncn(C4CCCC4)c3n2)CC1 [Example 48, 2-[Trans-(4-aminocyclohexyl)amino]-6-[(2,4-dichlorobenzyl)amino]-9-cyclopentylpurine dihydrochloride] | 0.8 µM | 2.8 | 2.7 µM and 2.4 µM | 1.8 | 1.9 µM and 2 µM and 1.4 µM | 3.1 | 3.2 | 3.4 µM and 2.8 µM and 2.5 µM | 3 | 2 | 1.9 µM and 1.6 µM | 4.4 µM and 5.3 µM | 3.7 µM and 3.4 µM | – | – | 2.2 | 2.3 µM and 2.1 µM | 3.1 µM and 2 µM and 1.8 µM
6 | N[C@H]1CC[C@H](Nc2nc(NCc3ccc(Cl)cc3)c3ncn(C4CCCC4)c3n2)CC1 [Example 27, 2-[Trans-(4-aminocyclohexyl)amino]-6-[(4-chlorobenzyl)amino]-9-cyclopentylpurine dihydrochloride] | 0.44 µM | 16 | – | 9.5 | 6.8 µM | – | 7.2 | 11 µM | 7 | 8.7 | – | 17 µM and 9 µM | 15 µM | – | – | 8.4 | 11 µM | –
7 | CC(C)n1cnc2c(NCC3CC3)nc(N[C@H]3CC[C@H](N)CC3)nc21 [Example 32, 2-[Trans-(4-aminocyclohexyl)amino]-6-[(cyclopropyl)methylamino]-9-(2-propyl)purine dihydrochloride] | 0.21 µM and 0.096 µM | – | 11 µM | – | – | > 20 | 17 | 10 µM | 16 | 9.7 | 6.9 µM | – | 24 µM | 9.3 | 5.3 | – | 10 µM | 8.1 µM
8 | N[C@H]1CC[C@H](Nc2nc(NCc3ccc(F)cc3)c3ncn(C4CCCC4)c3n2)CC1 [Example 50, 2-[Trans-(4-aminocyclohexyl)amino]-6-[(4-fluorobenzyl)amino]-9-cyclopentylpurine dihydrochloride] | 0.094 µM | 4 | 4.8 µM | 3.7 | 2.4 µM | 7.4 | 1.9 | 3.3 µM | 3.2 | 2 | 2.3 µM | 7.7 µM and 3.1 µM | 7.7 µM | 1.9 | 3.3 | – | – | 4.5 µM
9 | N[C@H]1CC[C@H](Nc2nc(NCC3CC3)c3ncn(C4CCCC4)c3n2)CC1 [Example 34, 2-[Trans-(4-aminocyclohexyl)amino]-6-[(cyclopropyl)methylamino]-9-cyclopentylpurine dihydrochloride] | 0.024 µM | 1.3 | 2.6 µM | 1.5 | 1.4 µM | 3.3 | 0.97 | 1.7 µM | 1.2 | – | – | 0.93 µM and 0.64 µM | 3.4 µM | – | – | 1.9 | 1.2 µM | 2.2 µM
10 | N[C@H]1CC[C@H](Nc2nc(NCC3CCCCC3)c3ncn(C4CCCC4)c3n2)CC1 [Example 22, 2-[Trans-(4-aminocyclohexyl)amino]-6-[(cyclohexyl)methylamino]-9-cyclopentylpurine dihydrochloride] | 0.52 µM | 16 | 12 µM | 9 | – | 17 | 7.5 | 11 µM | 8.6 | – | – | 24 µM and 63 µM | 15 µM | – | – | 8 | – | –
11 | N[C@H]1CC[C@H](Nc2nc(NCc3ccc(Cl)cc3F)c3ncn(C4CCCC4)c3n2)CC1 [Example 40, 2-[Trans-(4-aminocyclohexyl)amino]-6-[(4-chloro-2-fluorobenzyl)amino]-9-cyclopentylpurine dihydrochloride] | 0.19 µM | 1.6 | 3.2 µM | 2.3 | 2 µM | 4.2 | 2 | 3.5 µM | 3.1 | – | – | 3.1 µM and 1 µM | 3.6 µM | 1.7 | 3.3 | 2.01 | 3.6 µM | 3.5 µM
